Measured values taken from ChEMBL document CHEMBL1255314, “Outbreak of Acinetobacter baumannii with chromosomally encoded VIM-1 undetectable by imipenem-EDTA synergy tests” (2008).
Converted amounts (≈) assume the structure as drawn.

Legend:
Acinetobacter baumannii = assay: Antimicrobial activity against Acinetobacter baumannii isolates by agar dilution method; format: functional
[1] = target: Metallo-beta-lactamase (Acinetobacter baumannii) (UniProt Q4F6N3); assay: Activity of Acinetobacter baumannii isolate TZ42/166 VIM-1 assessed as compound hydrolysis in presence of EDTA
[2] = target: BlaVIM-1 (Escherichia coli) (UniProt Q8GDC1); assay: Inhibition of VIM-1 activity in Escherichia coli extracts at 100 uM
[3] = target: Metallo-beta-lactamase (Acinetobacter baumannii) (UniProt Q4F6N3); assay: Activity of Acinetobacter baumannii VIM-1 assessed as compound hydrolysis
[4] = target: Metallo-beta-lactamase (Acinetobacter baumannii) (UniProt Q4F6N3); assay: Activity of Acinetobacter baumannii isolate TZ42/166 VIM-1 assessed as compound hydrolysis

| SMILES | MIC (Acinetobacter baumannii) | other results |
| --- | --- | --- |
| C[C@H]1[C@H](NC(=O)/C(=N\OC(C)(C)C(=O)O)c2csc(N)n2)C(=O)N1S(=O)(=O)O [AZTREONAM] | > 64 µg/mL | – |
| CO/N=C(\C(=O)N[C@@H]1C(=O)N2C(C(=O)[O-])=C(C[N+]3(C)CCCC3)CS[C@H]12)c1csc(N)n1 [CEFEPIME] | > 64 µg/mL | – |
| CO/N=C(\C(=O)N[C@@H]1C(=O)N2C(C(=O)O)=C(COC(C)=O)CS[C@H]12)c1csc(N)n1 [CEFOTAXIME] | > 64 µg/mL | – |
| CC(C)(O/N=C(\C(=O)N[C@@H]1C(=O)N2C(C(=O)[O-])=C(C[n+]3ccccc3)CS[C@H]12)c1csc(N)n1)C(=O)O [CEFTAZIDIME] | > 64 µg/mL | – |
| C[C@@H](O)[C@H]1C(=O)N2C(C(=O)O)=C(SCCNC=N)C[C@H]12 [IMIPENEM ANHYDROUS] | 16 µg/mL (≈ 53.4 µM) | Activity [1]: 1.5 U; inhibition [2]: > 95%; Activity [3]: 28 U; Activity [4]: 90 U |
| C[C@@H](O)[C@H]1C(=O)N2C(C(=O)O)=C(S[C@@H]3CN[C@H](C(=O)N(C)C)C3)[C@H](C)[C@H]12 [MEROPENEM] | 16 µg/mL (≈ 41.7 µM) | – |
